# From paper PMC2748841 (Nature, 2009)
# “Also recorded” adds a separate entry of the source.
# Key:
# [1] = tested on: Schaffer collateral LTP, wild-type hippocampal slices; parameters: species or system mouse
# [2] = tested on: NR-2B containing receptors; format: cell-based
# PrP^C = PrP^C (Mus musculus, UniProt P04925); format: binding
# hippocampal neurons = format: binding, rat
# [3] = tested on: receptor for advanced glycation endproducts (RAGE); format: binding
# PrP Δ32–121 = PrP Δ32–121 (Mus musculus, UniProt P04925, DEL32-121); format: binding
# PrP Δ70–105 = format: binding, mouse
# [4] = tested on: hippocampal cultures from Prnp −/− mice; format: binding, mouse
# Sprn = target: T1, Sprn (Mus musculus, UniProt Q8BWU1); format: binding
# T1 sequence (Q8BWU1 whole entry, looked up): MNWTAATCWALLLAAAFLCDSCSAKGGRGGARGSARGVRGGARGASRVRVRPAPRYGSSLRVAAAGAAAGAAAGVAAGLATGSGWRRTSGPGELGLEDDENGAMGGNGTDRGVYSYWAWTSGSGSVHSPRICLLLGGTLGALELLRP
# PrP Δ32–106 = PrP Δ32–106 (Mus musculus, UniProt P04925, DEL32-106); format: binding
# [5] = tested on: hippocampal long-term potentiation; details: cited from earlier work
# [6] = tested on: NR-2D containing receptors; format: cell-based
# Doppel = Doppel (Homo sapiens, UniProt Q9UKY0); format: binding
# PrP Δ95–105 = format: binding, mouse
# [7] = tested on: Schaffer collateral LTP, Prnp −/− hippocampal slices; parameters: species or system mouse
# control Fc protein = format: binding, human
# APLP2 = APLP2 (Homo sapiens, UniProt Q06481); format: binding
# Sequence of APLP2 (Q06481 32-763): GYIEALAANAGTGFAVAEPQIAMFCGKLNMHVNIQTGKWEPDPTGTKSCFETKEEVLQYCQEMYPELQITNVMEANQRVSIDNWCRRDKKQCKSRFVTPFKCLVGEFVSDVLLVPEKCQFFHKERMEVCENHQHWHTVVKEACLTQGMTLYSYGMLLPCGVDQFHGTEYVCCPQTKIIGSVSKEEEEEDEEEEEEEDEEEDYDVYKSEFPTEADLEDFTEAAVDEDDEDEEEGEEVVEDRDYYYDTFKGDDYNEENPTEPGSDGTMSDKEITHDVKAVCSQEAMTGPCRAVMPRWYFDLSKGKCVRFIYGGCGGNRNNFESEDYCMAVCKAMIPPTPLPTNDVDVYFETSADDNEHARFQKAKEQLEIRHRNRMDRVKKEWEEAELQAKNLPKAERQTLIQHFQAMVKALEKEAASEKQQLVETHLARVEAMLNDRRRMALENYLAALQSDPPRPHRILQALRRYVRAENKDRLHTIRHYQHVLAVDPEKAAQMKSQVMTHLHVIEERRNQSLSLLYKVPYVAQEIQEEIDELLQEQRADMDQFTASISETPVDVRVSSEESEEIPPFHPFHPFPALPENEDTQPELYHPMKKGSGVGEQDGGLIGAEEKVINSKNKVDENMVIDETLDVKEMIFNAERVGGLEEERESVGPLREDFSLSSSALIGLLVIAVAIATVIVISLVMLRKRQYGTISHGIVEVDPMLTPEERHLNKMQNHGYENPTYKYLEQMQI
# APP = APP (Homo sapiens, UniProt P05067); format: binding
# PrP-Fc = format: binding, mouse
# PrP Δ52–91 = format: binding, mouse
# [8] = format: physicochemical; details: pH 7
substance,measurement,setting,value
Aβ42-oligomer,"effect on LTP, wild-type slices",[1],reduce LTP in hippocampal slices from wild-type mice
same,effect on NR2B-containing NMDA receptor currents,[2],insensitive to Aβ42-oligomers
same,effect of copper on binding to PrP,PrP^C,does not alter Aβ42-oligomer binding
same,Kd,"PrP^C; read-out: KD, PrP",92 nM
same,binding to hippocampal neurons,hippocampal neurons,saturable; also recorded: binds to 21 DIV hippocampal neurons
same,developmental dependence of neuronal binding,hippocampal neurons,minimal binding to neurons immediately after dissociation from E18 hippocampus; also recorded: Not until 15–20 days have elapsed in vitro does Aβ42-oligomer binding to neurons become robust
same,localization of binding on neurons,hippocampal neurons,most concentrated at post-synaptic densities; also recorded: localization of PrP immunoreactivity and Aβ42-oligomer binding overlap extensively
same,Kd,hippocampal neurons; read-out: apparent KD,50 to 100 nM
same,binding to RAGE (in words),[3],"less Aβ42-oligomer binding signal than did PrP, APLP1 or TMEM30B"
same,binding to PrP Δ32–121 (in words),PrP Δ32–121,abrogates binding
same,binding to PrP Δ70–105 (in words),PrP Δ70–105,no further reduction
same,reduction of punctate binding in Prnp −/− cultures,[4],50%
same,affinity for Sprn (in words),Sprn,neither exhibited affinity for oligomeric Aβ42
same,binding to PrP Δ32–106 (in words),PrP Δ32–106,no Aβ42-oligomer affinity
same,effect on Schaffer collateral LTP,[5],suppress long-term potentiation (LTP)
same,effect on NR2D-containing NMDA receptor currents,[6],insensitive to Aβ42-oligomers
same,affinity for Doppel (in words),Doppel,neither exhibited affinity for oligomeric Aβ42
same,"reduction of binding, PrP Δ95–105",PrP Δ95–105,80%
same,"effect on LTP, Prnp −/− slices",[7],no significant inhibition of LTP
freshly prepared biotin-Aβ42: freshly prepared Aβ42 with biotin attached by 6-carbon linker to amino terminus,binding to hippocampal neurons,hippocampal neurons,does not
Aβ42,retention by control Fc,control Fc protein,retained neither freshly prepared nor oligomeric preparations of Aβ42
same,binding to APLP2 (in words),APLP2,neither of these proteins binds Aβ42
same,binding to APP (in words),APP,neither of these proteins binds Aβ42
same,retention by PrP-Fc (in words),PrP-Fc,retained Aβ42 peptide through a direct physical interaction
same,binding to PrP Δ52–91 (in words),PrP Δ52–91,exhibits significant Aβ42 binding
"biotin-Aβ42-oligomer: Aβ42 with biotin moiety attached by 6-carbon linker to amino terminus, oligomerized",localization of binding on neurons,hippocampal neurons,very low levels in astroglial cells
same,particle diameter,[8],5–6 nm
